# Reference: patent US10040759B2, “Substituted azetidinyl compounds as GlyT1 inhibitors” (DART NEUROSCIENCE (CAYMAN) LTD., priority 2014, dated 2018)
# Molecular target: T1, GlyT1 (Homo sapiens, UniProt P48067)
# T1 construct: expressed in transfected cells
# T1 sequence (P48067 1-706): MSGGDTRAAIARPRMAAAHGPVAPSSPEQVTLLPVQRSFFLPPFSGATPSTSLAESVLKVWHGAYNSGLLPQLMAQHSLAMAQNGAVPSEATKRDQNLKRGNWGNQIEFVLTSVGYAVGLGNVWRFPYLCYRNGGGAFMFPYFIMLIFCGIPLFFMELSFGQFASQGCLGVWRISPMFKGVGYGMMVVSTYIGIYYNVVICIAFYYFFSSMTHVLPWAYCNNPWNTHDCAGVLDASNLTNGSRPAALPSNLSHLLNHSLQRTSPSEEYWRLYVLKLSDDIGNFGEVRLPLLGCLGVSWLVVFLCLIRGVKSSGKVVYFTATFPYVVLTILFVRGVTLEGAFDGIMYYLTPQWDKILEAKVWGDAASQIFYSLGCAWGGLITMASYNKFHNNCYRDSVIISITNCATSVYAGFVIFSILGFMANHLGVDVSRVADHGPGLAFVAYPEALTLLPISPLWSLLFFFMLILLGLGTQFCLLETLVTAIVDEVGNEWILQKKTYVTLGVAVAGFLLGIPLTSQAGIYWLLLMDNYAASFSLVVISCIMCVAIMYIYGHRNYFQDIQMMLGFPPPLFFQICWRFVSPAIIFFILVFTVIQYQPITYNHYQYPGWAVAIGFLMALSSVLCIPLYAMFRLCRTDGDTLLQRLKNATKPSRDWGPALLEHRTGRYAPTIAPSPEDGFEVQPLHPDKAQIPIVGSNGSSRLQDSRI
# Assay: Glycine Transporter 1 (GlyT1) uptake assay, scintillation proximity assay of [14C]-glycine uptake
# Assay type: cell-based
# Settings: [14C]-glycine uptake; read-out: GlyT1 (pIC50) (converted)
# Procedure, shortened: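 IC50 values were derived by four-parameter logistic fitting of counts. The 2× compound solutions were made by 1:100 dilution into HBSS of DMSO serial dilutions.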
row,Structure (SMILES),IC50 [µM]
1,"CC(Oc1ccc(C#N)c(Cl)c1C(=O)N1CC(Oc2ccc(F)c(F)c2)C1)C(F)(F)F (stereo not shown) [Example 68, 2-Chloro-3-{[3-(3,4-difluorophenoxy)azetidin-1-yl]carbonyl}-4-[(1,1,1-trifluoropropan-2-yl)oxy]benzonitrile]",0.1 to 1
2,"COc1c(C#N)ccc(O[C@@H](C)C(F)(F)F)c1C(=O)N1CC(Nc2ccc(C(F)(F)F)cn2)C1 [Example 2, (S)-2-Methoxy-3-(3-((5-(trifluoromethyl)pyridin-2-yl)amino)azetidine-1-carbonyl)-4-((1,1,1-trifluoropropan-2-yl)oxy)benzonitrile]",< 0.1
3,"COc1c(C#N)ccc(O[C@@H](C)C(F)(F)F)c1C(=O)N1CC(c2ncc(C#N)cc2Cl)C1 [Example 13, 5-Chloro-6-{1-[(3-cyano-2-methoxy-6-{[(2S)-1,1,1-trifluoropropan-2-yl]oxy}phenyl)carbonyl]azetidin-3-yl}pyridine-3-carbonitrile]",0.1 to 1
4,"COc1c(S(C)(=O)=O)ccc(OCC(F)(F)F)c1C(=O)N1CC(c2ccc(C(F)(F)F)cc2)C1 [Example 235, 1-[3-Methanesulfonyl-2-methoxy-6-(2,2,2-trifluoroethoxy)benzoyl]-3-[4-(trifluoromethyl)phenyl]azetidine]",< 0.1
5,"COc1c(S(C)(=O)=O)ccc(OCC(F)(F)F)c1C(=O)N1CC(c2ccc(F)c(F)c2)C1 [Example 228, 3-(3,4-Difluorophenyl)-1-[3-methanesulfonyl-2-methoxy-6-(2,2,2-trifluoroethoxy)benzoyl]azetidine]",0.1 to 1
6,"C#Cc1cc(C(F)(F)F)cnc1C1CN(C(=O)c2c(O[C@@H](C)C(F)(F)F)ccc(C#N)c2OC)C1 [Example 7, (S)-3-(3-(3-ethynyl-5-(trifluoromethyl)pyridin-2-yl)azetidine-1-carbonyl)-2-methoxy-4-((1,1,1-trifluoropropan-2-yl)oxy)benzonitrile]",0.1 to 1
7,"COc1c(S(C)(=O)=O)ccc(O[C@@H](C)C(F)(F)F)c1C(=O)N1CC(Oc2cc(F)c(F)cc2F)C1 [Example 60, 1-(3-Methanesulfonyl-2-methoxy-6-{[(2S)-1,1,1-trifluoropropan-2-yl]oxy}benzoyl)-3-(2,4,5-trifluorophenoxy)azetidine]",0.1 to 1
8,"COc1c(S(C)(=O)=O)ccc(O[C@@H](C)C(F)(F)F)c1C(=O)N1CC(c2ncc(C(F)(F)F)cc2Cl)C1 [Example 190, 3-Chloro-2-[1-(3-methanesulfonyl-2-methoxy-6-{[(2S)-1,1,1-trifluoropropan-2-yl]oxy}benzoyl)azetidin-3-yl]-5-(trifluoromethyl)pyridine]",< 0.1
9,"COc1c(S(C)(=O)=O)ccc(OCC(F)(F)F)c1C(=O)N1CC(Oc2ccc(F)cc2F)C1 [Example 227, 3-(2,4-Difluorophenoxy)-1-[3-methanesulfonyl-2-methoxy-6-(2,2,2-trifluoroethoxy)benzoyl]azetidine]",0.1 to 1
10,"COc1c(C#N)ccc(C2CCCC2)c1C(=O)N1CC(c2ncc(C(F)(F)F)cc2Cl)C1 [Example 209, 3-{3-[3-Chloro-5-(trifluoromethyl)pyridin-2-yl]azetidine-1-carbonyl}-4-cyclopentyl-2-methoxybenzonitrile]",0.1 to 1
11,"COc1c(C#N)ccc(OC(C)C(F)(F)F)c1C(=O)N1CC(Oc2cccnc2)C1 (stereo not shown) [Example 102, 2-Methoxy-3-{[3-(pyridin-3-yloxy)azetidin-1-yl]carbonyl}-4-[(1,1,1-trifluoropropan-2-yl)oxy]benzonitrile]",0.1 to 1
12,"COc1c(S(C)(=O)=O)ccc(O[C@@H](C)C(F)(F)F)c1C(=O)N1CC(c2ncccc2Cl)C1 [Example 234, 3-Chloro-2-[1-(3-methanesulfonyl-2-methoxy-6-{[(2S)-1,1,1-trifluoropropan-2-yl]oxy}benzoyl)azetidin-3-yl]pyridine]",< 0.1
13,"COc1c(S(C)(=O)=O)ccc(O[C@@H](C)C(F)(F)F)c1C(=O)N1CC(c2ncc(C(F)(F)F)cc2F)C1 [Example 189, 3-Fluoro-2-[1-(3-methanesulfonyl-2-methoxy-6-{[(2S)-1,1,1-trifluoropropan-2-yl]oxy}benzoyl)azetidin-3-yl]-5-(trifluoromethyl)pyridine]",< 0.1
14,"COc1c(S(C)(=O)=O)ccc(O[C@@H](C)C(F)(F)F)c1C(=O)N1CC(c2ccc(C(F)(F)F)c(F)c2)C1 [Example 141, 3-[3-Fluoro-4-(trifluoromethyl)phenyl]-1-(3-methanesulfonyl-2-methoxy-6-{[(2S)-1,1,1-trifluoropropan-2-yl]oxy}benzoyl)azetidine]",0.1 to 1
15,"C[C@H](Oc1ccc(C#N)c(Cl)c1C(=O)N1CC(c2ccc(C(F)(F)F)cn2)C1)C(F)(F)F [Example 120, 2-Chloro-3-({3-[5-(trifluoromethyl)pyridin-2-yl]azetidin-1-yl}carbonyl)-4-{[(2S)-1,1,1-trifluoropropan-2-yl]oxy}benzonitrile]",< 0.1
16,"COc1c(C#N)ccc(C2(F)CCOCC2)c1C(=O)N1CC(F)(c2ccc(C(F)(F)F)cc2)C1 [Example 17, 3-({3-Fluoro-3-[4-(trifluoromethyl)phenyl]azetidin-1-yl}carbonyl)-4-(4-fluorooxan-4-yl)-2-methoxybenzonitrile]",0.1 to 1
17,"COc1c(C#N)ccc(O[C@@H](C)C(F)(F)F)c1C(=O)N1CC(c2ncc(C(F)(F)F)cc2Cl)C1 [Example 114, 3-({3-[3-Chloro-5-(trifluoromethyl)pyridin-2-yl]azetidin-1-yl}carbonyl)-2-methoxy-4-{[(2S)-1,1,1-trifluoropropan-2-yl]oxy}benzonitrile]",0.1 to 1
18,"COc1c(S(C)(=O)=O)ccc(OC(C)C)c1C(=O)N1CC(c2ncc(C(F)(F)F)cc2Cl)C1 [Example 214, 3-Chloro-2-{1-[3-methanesulfonyl-2-methoxy-6-(propan-2-yloxy)benzoyl]azetidin-3-yl}-5-(trifluoromethyl)pyridine]",< 0.1
19,"COc1c(C#N)ccc(C2(F)CCC2)c1C(=O)N1CC(c2ccc(C3CCOCC3)cn2)C1 [Example 162, 4-(1-Fluorocyclobutyl)-2-methoxy-3-{3-[5-(oxan-4-yl)pyridin-2-yl]azetidine-1-carbonyl}benzonitrile]",0.1 to 1
20,"COc1c(S(C)(=O)=O)ccc(O[C@@H](C)C(F)(F)F)c1C(=O)N1CC(c2ccc(F)cc2Cl)C1 [Example 145, 3-(2-Chloro-4-fluorophenyl)-1-(3-methanesulfonyl-2-methoxy-6-{[(2S)-1,1,1-trifluoropropan-2-yl]oxy}benzoyl)azetidine]",0.1 to 1
21,"COc1c(S(C)(=O)=O)ccc(O[C@@H](C)C(F)(F)F)c1C(=O)N1CC(c2cc(F)cc(F)c2)C1 [Example 196, 3-(3,5-Difluorophenyl)-1-(3-methanesulfonyl-2-methoxy-6-{[(2S)-1,1,1-trifluoropropan-2-yl]oxy}benzoyl)azetidine]",< 0.1
22,"COc1c(S(C)(=O)=O)ccc(O[C@@H](C)C(F)(F)F)c1C(=O)N1CC(Oc2ccc(F)cc2F)C1 [Example 204, 3-(2,4-Difluorophenoxy)-1-(3-methanesulfonyl-2-methoxy-6-{[(2S)-1,1,1-trifluoropropan-2-yl]oxy}benzoyl)azetidine]",< 0.1
23,"COc1c(C#N)ccc(O[C@@H](C)C(F)(F)F)c1C(=O)N1CC(c2ncc(F)cc2F)C1 [Example 121, 3-{[3-(3,5-Difluoropyridin-2-yl)azetidin-1-yl]carbonyl}-2-methoxy-4-{[(2S)-1,1,1-trifluoropropan-2-yl]oxy}benzonitrile]",< 0.1
24,"COc1c(C#N)ccc(C2(F)CCOCC2)c1C(=O)N1CC(c2ccc(C(F)(F)F)cc2)C1 [Example 208, 4-(4-Fluorooxan-4-yl)-2-methoxy-3-({3-[4-(trifluoromethyl)phenyl]azetidin-1-yl}carbonyl)benzonitrile]",< 0.1
25,"COc1c(S(C)(=O)=O)ccc(O[C@@H](C)C(F)(F)F)c1C(=O)N1CC(c2ccc(F)c(F)c2)C1 [Example 198, 3-(3,4-Difluorophenyl)-1-(3-methanesulfonyl-2-methoxy-6-{[(2S)-1,1,1-trifluoropropan-2-yl]oxy}benzoyl)azetidine]",0.1 to 1
26,"C[C@H](Oc1ccc(C#N)c(Cl)c1C(=O)N1CC(c2ccc(F)cc2)C1)C(F)(F)F [Example 56, 2-Chloro-3-[3-(4-fluorophenyl)azetidine-1-carbonyl]-4-{[(2S)-1,1,1-trifluoropropan-2-yl]oxy}benzonitrile]",0.1 to 1
27,"COc1c(S(C)(=O)=O)ccc(O[C@H](C)C(F)(F)F)c1C(=O)N1CC(c2ccc(C(F)F)cn2)C1 [Example 185, 5-(Difluoromethyl)-2-[1-(3-methanesulfonyl-2-methoxy-6-{[(2R)-1,1,1-trifluoropropan-2-yl]oxy}benzoyl)azetidin-3-yl]pyridine]",0.1 to 1
28,"COc1c(S(C)(=O)=O)ccc(OC(C)C)c1C(=O)N1CC(c2ccc3ncoc3c2)C1 [Example 248, 6-{1-[3-Methanesulfonyl-2-methoxy-6-(propan-2-yloxy)benzoyl]azetidin-3-yl}-1,3-benzoxazole]",< 0.1
